Tests used:
[1] = tested on: Mouse preadipocyte strain 3T3-L1; assay: Inhibition of differentiation as an indication of acetic acid uptake; assay type: cell-based; settings: control (0.01% dimethylsulfoxide) = 100%; for activity at 0.1 µM: Mus musculus, 3T3-L1, 0.1 μM test substance, read-out: Rate of Uptake (%) of [2-14C] acetic acid
Summary of the method: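 Confluent 3T3-L1 cells induced to differentiate for 4 days (insulin, IBMX, dexamethasone, 5% FBS) with test compound at 0.1 μM final or 0.01% DMSO, then 2 days in insulin maintenance medium, at 37 °C, 10% CO2. [2-14C]acetic acid uptake over 1 hr counted by scintillation; expressed as % of DMSO control.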

[2] = tested on: Rat white adipocytes; assay: Stimulation of differentiation of the adipocytes (Oil Red O); assay type: cell-based; settings: 100 nM test compound, 5 days, Oil Red O ABS550, control = 100%, blank = 0%, Table 7; for activity at 0.1 µM: Rattus norvegicus, Adipocyte, 120 h, read-out: Rate of Differentiation (%)
Summary of the method: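 Rat white adipocytes, 5,000 cells/well, cultured 5 days in differentiation-inducing medium with test compound at final 100 nM (0.1% DMSO). Cells fixed, stained with Oil Red O, dye extracted in DMSO and read at 550 nm; differentiation rate expressed relative to vehicle control (100%) and cell-free blank (0%).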

Row | Molecule | activity at 0.1 µM [1] | activity at 0.1 µM [2] | Rate of Uptake (%) of [2-14C] acetic acid ([1]; 0.1 μM test substance) | Rate of Differentiation (%) [2]
1 | Cc1nc(NC(=O)c2cc([N+](=O)[O-])ccc2Cl)sc1C [Example 47] | 63.1% | 141% | – | –
2 | Cc1cccc(NC(=O)c2cc([N+](=O)[O-])ccc2Cl)n1 [Example 51, N-(6-Methylpyridin-2-yl)-(2-chloro-5-nitrophenyl)carboxamide] | 57.5% | 129% | – | –
3 | Cc1ccc(NC(=O)c2cc([N+](=O)[O-])ccc2Cl)nc1 [Example 52, N-(5-Methylpyridin-2-yl)-(2-chloro-5-nitrophenyl)carboxamide] | 52.3% | 133% | – | –
4 | O=C(Nc1ccc2c3c(cccc13)CC2)c1cc([N+](=O)[O-])ccc1Cl [Example 54, N-(Acenaphthen-5-yl)-(2-chloro-5-nitrophenyl)carboxamide] | 51.3% | 118% | – | –
5 | Cc1ccnc(NC(=O)c2cc([N+](=O)[O-])ccc2Cl)n1 [Example 65, N-(4-Methylpyrimidin-2-yl)-(2-chloro-5-nitrophenyl)carboxamide] | 63.4% | 112% | – | –
6 | COC(=O)c1sccc1NC(=O)c1cc([N+](=O)[O-])ccc1Cl [Example 66, N-(2-Methoxycarbonylthiophen-3-yl)-(2-chloro-5-nitrophenyl)carboxamide] | 70.7% | 113% | – | –
7 | Cn1c(NC(=O)c2cc([N+](=O)[O-])ccc2Cl)nc2ccccc21 [Example 82, N-(1-Methylbenzimidazol-2-yl)-(2-chloro-5-nitrophenyl)carboxamide] | 83% | 114% | – | –
8 | O=C(Nc1nncs1)c1cc([N+](=O)[O-])ccc1Cl [Example 85, N-(1,3,4-Thiadiazol-2-yl)-(2-chloro-5-nitrophenyl)carboxamide] | 67.1% | 125% | – | –
9 | O=C(Nc1ccc(S(=O)(=O)Nc2nccs2)cc1)c1cc([N+](=O)[O-])ccc1Cl [Example 96, N-[4-(Thiazol-2-yl)aminosulfonyl]phenyl-(2-chloro-5-nitrophenyl)carboxamide] | 98.7% | 123% | – | –
10 | O=C(Nc1ccc(S(=O)(=O)Nc2ccc(Cl)nn2)cc1)c1cc([N+](=O)[O-])ccc1Cl [Example 102, N-[4-[(6-Chloropyridazin-3-yl)aminosulfonyl]phenyl]-(2-chloro-5-nitrophenyl)carboxamide] | 76.8% | 114% | – | –
11 | N=C(N)NS(=O)(=O)c1ccc(NC(=O)c2cc([N+](=O)[O-])ccc2Cl)cc1 [Example 106, N-[4-(Amidinoaminosulfonyl)phenyl]-(2-chloro-5-nitrophenyl)carboxamide] | 82% | 113% | – | –
12 | Cc1ccc(S(=O)(=O)Nc2ccc(NC(=O)c3cc([N+](=O)[O-])ccc3Cl)cc2)cc1 [Example 116, N-[4-(4-Toluenesulfonylamino)phenyl]-(2-chloro-5-nitrophenyl)carboxamide] | 95.1% | 124% | – | –
13 | CC(=O)Nc1ccc(NC(=O)c2cc([N+](=O)[O-])ccc2Cl)cc1 [Example 117, N-(4-Acetylaminophenyl)-(2-chloro-5-nitrophenyl)carboxamide] | 87% | 122% | – | –
14 | O=C(Nc1ccc(NC(=O)c2cc([N+](=O)[O-])ccc2Cl)cc1)c1ccccc1 [Example 119, N-(4-Benzoylaminophenyl)-(2-chloro-5-nitrophenyl)carboxamide] | 65.7% | 135% | – | –
15 | N-[4-(Pyrrolidinylsulfonyl)phenyl]-(2-chloro-5-nitrophenyl)carboxamide [Example 152] | – | – | 69.6% | 112.7%
